Data as given in US4093626A, “β-Lactam antibiotics” (Beecham Group Limited, priority 1976, dated 1978).
pIC50: −log10 of the molar value.

Tests used:
Staph. aureus Russell [1] = experiment: Antibacterial activity (M.I.C.) against Staphylococcus aureus Russell; assay type: cell-based; settings: compound alone
Description: (§1) Antibacterial activity and antibacterial synergy with ampicillin against Staphylococcus aureus Russell

Staph. aureus Russell [2] = experiment: Antibacterial synergy with ampicillin against Staphylococcus aureus Russell (M.I.C. of ampicillin in presence of compound); assay type: cell-based; settings: inhibitor conc. 20 μg/ml
Description: as §1

Acute toxicity in mice = assay type: in vivo
Protocol: The compound (mixture of 2 isomers) from Example 6.2 was tested for acute toxicity in mice as described below.
Mice: CDI, female, 18 - 22 gm. 5 mice per group
The compound was injected in aqueous dimethylformamide (≤15% DMF) at 0.4 ml/20 g for the 2000 mg./Kg. dosage and at 0.2 ml/20 g. for the other dosages.

[3] = target: β-lactamase enzyme produced by Staphylococcus aureus Russell (Staphylococcus aureus, UniProt P00807); experiment: Inhibition of the β-lactamase from Staphylococcus aureus Russell (I50); assay type: biochemical; settings: β-lactamase from Staph. aureus Russell
Chain of β-lactamase enzyme produced by Staphylococcus aureus Russell (P00807 25-281): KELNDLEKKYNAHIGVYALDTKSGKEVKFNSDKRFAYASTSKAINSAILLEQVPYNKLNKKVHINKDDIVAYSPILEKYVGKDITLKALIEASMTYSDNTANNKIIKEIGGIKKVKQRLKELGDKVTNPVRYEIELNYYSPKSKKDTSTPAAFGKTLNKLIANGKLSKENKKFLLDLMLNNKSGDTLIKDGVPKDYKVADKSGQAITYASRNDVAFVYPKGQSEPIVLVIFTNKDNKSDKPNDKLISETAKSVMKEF
Protocol: Inhibition of the β-lactamase from Staphylococcus aureus Russell
I50 values were determined using the process described in Belgium Pat. No. 827,926.

Compound: (3RS, 5RS)- and (3RS, 5SR)-3-(2-Bromoethyl)-4-oxa-1-azabicyclo[3.2.0]heptan-7-one [Example 6.2]
- M.I.C. (Staph. aureus Russell [1]): 500 µg/mL
- M.I.C. Ampicillin (Staph. aureus Russell [2]): 0.4 µg/mL
- Number of mice alive (Acute toxicity in mice; 250 mg./Kg. subcutaneous, Day 2): 5/5
- Number of mice alive (Acute toxicity in mice; 250 mg./Kg. subcutaneous, Day 3): 5/5
- Number of mice alive (Acute toxicity in mice; 250 mg./Kg. subcutaneous, Days 0 and 1): 5/5
- Number of mice alive (Acute toxicity in mice; 250 mg./Kg. subcutaneous, Days 4 to 7): 5/5
- Number of mice alive (Acute toxicity in mice; 500 mg./Kg. subcutaneous, Day 2): 5/5
- Number of mice alive (Acute toxicity in mice; 500 mg./Kg. subcutaneous, Day 3): 5/5
- Number of mice alive (Acute toxicity in mice; 500 mg./Kg. subcutaneous, Days 0 and 1): 5/5
- Number of mice alive (Acute toxicity in mice; 500 mg./Kg. subcutaneous, Days 4 to 7): 5/5
- Number of mice alive (Acute toxicity in mice; 1000 mg./Kg. subcutaneous, Day 2): 5/5
- Number of mice alive (Acute toxicity in mice; 1000 mg./Kg. subcutaneous, Day 3): 5/5
- Number of mice alive (Acute toxicity in mice; 1000 mg./Kg. subcutaneous, Days 0 and 1): 5/5
- Number of mice alive (Acute toxicity in mice; 1000 mg./Kg. subcutaneous, Days 4 to 7): 5/5
- Number of mice alive (Acute toxicity in mice; 2000 mg./Kg. subcutaneous, Day 2): 3/5
- Number of mice alive (Acute toxicity in mice; 2000 mg./Kg. subcutaneous, Day 3): 2/5
- Number of mice alive (Acute toxicity in mice; 2000 mg./Kg. subcutaneous, Days 0 and 1): 5/5
- Number of mice alive (Acute toxicity in mice; 2000 mg./Kg. subcutaneous, Days 4 to 7): 2/5
- Survival and weight gain of remaining mice (Acute toxicity in mice; 2000 mg./Kg. subcutaneous, end of observation period (7 days)): the other two remained alive and had gained weight
- Deaths (Acute toxicity in mice; 2000 mg./Kg. subcutaneous, within 3 days): three out of the five mice were dead
- Survival and weight gain over the observation period (Acute toxicity in mice; dosages up to 100 mg./Kg. subcutaneous, 7 days): all mice remained alive and gained in weight

Compound: O=C1C[C@@H]2O[C@@H](CBr)CN12 (racemic) [Example 2.2, (3RS, 5SR)-3-Bromomethyl-4-oxa-1-azabicyclo[3.2.0]heptan-7-one]
- pIC50 [3]: 4.84

Compound: O=C1C[C@@H]2O[C@@H](CSc3ccccc3)CN12 (racemic) [Example 7, (3RS, 5SR)-3-Phenylthiomethyl-4-oxa-1-azabicyclo[3.2.0]heptan-7-one]
- pIC50 [3]: 4.99

Compound: O=C1C[C@@H]2O[C@@H](C[S+]([O-])c3ccc([N+](=O)[O-])cc3)CN12 (single isomer, unassigned) [Example 20 (isomer I), (3RS, 5SR)-3-p-Nitrophenylsulphinylmethyl-4-oxa-1-azabicyclo[3.2.0] heptan-7-one]
- pIC50 [3]: 5.57

Compound: O=C(Nc1ccccc1)OC[C@H]1CN2C(=O)C[C@@H]2O1 (relative stereo) [Example 22, (3RS, 5SR)-3-(N-Phenylcarbamoyloxymethyl)-4-oxa-1-azabicyclo[3.2.0]heptan-7-one]
- pIC50 [3]: 5.04

Compound: O=C1C[C@@H]2O[C@@H](CS(=O)(=O)c3ccc([N+](=O)[O-])cc3)CN12 (relative stereo) [Example 0-20]
- pIC50 [3]: 5.26

Compound: O=C(OC[C@H]1CN2C(=O)C[C@@H]2O1)c1ccc([N+](=O)[O-])cc1 (racemic) [Example 14, (3RS, 5SR)-3-p-Nitrobenzoyloxymethyl-4-oxa-1-azabicyclo[3.2.0]heptan-7-one]
- pIC50 [3]: 4.82

Compound: O=C1C[C@@H]2O[C@@H](COc3ccc([N+](=O)[O-])cc3)CN12 (racemic) [Example 15, (3RS, 5SR)-3-p-Nitrophenoxymethyl-4-oxa-1-azabicyclo[3.2.0]heptan-7-one]
- pIC50 [3]: 4.78
